This is an account of results in PMC6278281, “Rosmarinic Acid Derivatives’ Inhibition of Glycogen Synthase Kinase-3β Is the Pharmacological Basis of Kangen-Karyu in Alzheimer’s Disease” (Molecules, 2018).

Broadly, the Ki is the dissociation constant of the complex between target and ligand, obtained from inhibition or displacement. What is called IC50 is the point on the concentration scale where inhibition reaches its midpoint. By bioavailability is commonly meant dose-corrected exposure relative to a reference, in per cent.

“And” between values parts separate entries of the source, which are not always exact repeats. Equal entries are not always repeated. Where two headings read alike, the source gives them in different places.

The target of data set [1] is Glycogen synthase kinase 3β. To be noted: cited from earlier work; for Inhibition Mode / IC50: reference controls; for IC50: read-out: IC50, GSK-3β inhibition.
The next data set deals with PC12 cells. On the set-up: method as in PMID 19101570. To be noted: 20 µg/mL; cited from earlier work.
In data set [2] the target is T1, human recombinant GSK-3β (Homo sapiens, UniProt P49841).
T1 construct: purchased ProSpec-Tany TechnoGene Ltd., Ness-Ziona, Israel
T1 sequence (P49841 whole entry): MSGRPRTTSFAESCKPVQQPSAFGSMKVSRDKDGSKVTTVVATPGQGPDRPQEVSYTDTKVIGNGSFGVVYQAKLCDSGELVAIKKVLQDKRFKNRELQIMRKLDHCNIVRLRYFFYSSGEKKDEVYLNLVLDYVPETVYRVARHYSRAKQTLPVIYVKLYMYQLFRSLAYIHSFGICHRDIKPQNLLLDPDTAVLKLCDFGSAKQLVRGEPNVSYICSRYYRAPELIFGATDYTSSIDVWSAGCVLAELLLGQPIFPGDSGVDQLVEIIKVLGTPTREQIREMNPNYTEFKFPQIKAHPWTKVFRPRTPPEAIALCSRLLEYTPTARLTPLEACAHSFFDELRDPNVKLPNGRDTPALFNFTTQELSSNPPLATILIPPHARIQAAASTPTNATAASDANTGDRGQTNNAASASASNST
The data set can be described thus: GSK-3β enzyme inhibition assay (Kinase-Glo luminescent kinase assay). In kind it is biochemical. The note with it: pure compounds, mean ± SEM of triplicate experiments. For orientation: In Kinase-Glo more light means more ATP remaining.
Procedure: The enzymatic inhibition of GSK-3β in vitro was evaluated with human recombinant GSK-3β by using a Kinase-Glo reagent kit, according to Baki et al. [52] with a slight modification. The kinase reaction was performed in 384-well black plates. Test concentrations were prepared through serial dilution by using an assay buffer (pH 7.5) containing 50 mM HEPES, 1 mM EDTA, 1 mM EGTA, and 15 mM magnesium acetate. To initiate the reaction, 5 µL of sample, 5 µL of ATP (1 µM final concentration), 5 µL of 50 µM GSM, and 5 µL of 20 ng GSK-3β were mixed simultaneously in each well (the final DMSO concentration in the reaction mixture was less than 5%). Test samples were replaced by 5 µL of either buffer or luteolin to produce positive control (maximum activity) and negative control (total inhibition) samples. The reaction mixture was incubated at 37 °C for 30 min and was followed by the addition of the 20-µL Kinase-Glo reagent to stop the reaction. Glow-type luminescence was recorded after 10 min. The activity was proportional to the difference between total and consumed ATP. Inhibition activities were calculated on the basis of maximal activity, measured in the absence of the inhibitor, and the maximal inhibition was measured in the presence of the reference compound.

The test system of a further data set is BACE1. On the set-up: method as in PMID 29679864. The note with it: cited from earlier work.
Data set [3] has as its target T1, human recombinant GSK-3β. The data set can be described thus: GSK-3β enzyme kinetics (Lineweaver–Burk and secondary plots, varying ATP or GSM substrate). The data set is classed as biochemical. The note with it: for Ki: from secondary plots; for Inhibition Mode: Lineweaver–Burk plots. The protocol:
The mode of GSK-3β enzyme inhibition by Sal B was characterized via kinetic study by using various concentrations of GSM substrate and ATP. Lineweaver–Burk plots showing reciprocal rates versus reciprocal GSM substrate/ATP concentrations (Figure 3) were deployed to explore the GSK-3β inhibition mechanism.
The GSK-3β enzyme kinetics was evaluated by using the assay method described in Section 4.4 with varying concentrations of ATP (2 µM, 1 µM, or 0.5 µM) or substrate (50 µM, 25 µM, or 12.5 µM). A Lineweaver–Burk plot was prepared by using double reciprocal plots of enzyme kinetic data. Ki values were calculated from the secondary plots.

Details of data set [4]: method as in PMID 15484228, PMID 16905282. To be noted: oral administration; cited from earlier work.
The next data set has as its system SH-SY5Y-APPsw cells. Also noted: method as in PMID 27258307. The note with it: by modulating BACE1 activity; cited from earlier work.
Data set [5] deals with induced pluripotent stem cells (iPSCs). On the set-up: method as in PMID 29421539. The note with it: via the AKT/GSK-3β signaling pathway; cited from earlier work.
On the set-up of data set [6]: method as in PMID 21903108. To be noted: induced by scopolamine or Aβ25–35; cited from earlier work.
On the set-up of data set [7]: method as in PMID 29027831. To be noted: nasal administration in rats, cited from earlier work.
Where [8] appears, read: read-out: IC50 (Mean ± SEM), GSK-3β inhibition.
Where [9] appears, read: IC50 (Mean ± SEM), GSK-3β inhibition.

For the compound `COc1ccc(CNC(=O)Nc2ncc([N+](=O)[O-])s2)cc1` [AR-A014418], in data set [1] (reference control), the Ki is 0.03 µM. Moreover, in [1], the “Inhibition Mode” value was “ATP-competitive [30]” and the IC50 is 0.1 µM.
As to `O=C1Cc2c([nH]c3ccc([N+](=O)[O-])cc23)-c2ccccc2N1` [Alsterpaullone], in data set [1], the “Inhibition Mode” value was “ATP-competitive [31]” and the half-maximal inhibitory concentration (IC50) was 0.004 µM.
Consider `O=C(O)/C=C/c1ccc(O)c(O)c1` [Caffeic acid], for which the “phosphorylation of GSK-3β and tau protein” value in the data set with PC12 cells was “decreases the phosphorylation of GSK-3β and tau protein”. Besides, at human recombinant GSK-3β [2] (setting [8]), the IC50 is 425 ± 7.61 µM.
With `O=C1Nc2ccccc2/C1=C1/Nc2ccccc2C1=O` [Indirubin], in data set [1], the “Inhibition Mode” value is “ATP-competitive [32]” and the IC50 was 0.6 µM.
For the compound `O=c1cc(-c2ccc(O)c(O)c2)oc2cc(O)cc(O)c12` [Luteolin, reference compound], the IC50 at human recombinant GSK-3β [2] (setting [9]) turned out to be 2.18 ± 0.13 µM.
Take `O=C(/C=C/c1ccc(O)c2c1[C@H](C(=O)O[C@H](Cc1ccc(O)c(O)c1)C(=O)O)[C@@H](c1ccc(O)c(O)c1)O2)O[C@H](Cc1ccc(O)c(O)c1)C(=O)O` [Magnesium lithospermate B]: the BACE1 inhibitory activity entry with BACE1 was “potent activity”. The concentration for half-maximal inhibition (IC50) at human recombinant GSK-3β [2] (setting [8]) is ~30 µM and 33.1 µM.
Regarding `O=C(/C=C/c1ccc(O)c(O)c1)O[C@H](Cc1ccc(O)c(O)c1)C(=O)O` [Rosmarinic acid], in the data set on BACE1, the BACE1 inhibitory activity entry is listed as “potent activity”. Also, the IC50 at human recombinant GSK-3β [2] (setting [8]) turned out to be 135 ± 4.69 µM.
Turning to `O=C(/C=C/c1ccc(O)c(O)c1/C=C/c1ccc(O)c(O)c1)O[C@H](Cc1ccc(O)c(O)c1)C(=O)O` [Salvianolic acid A], in the data set with BACE1, the BACE1 inhibitory activity result was “potent activity”. For the same compound, the IC50 at human recombinant GSK-3β [2] (setting [8]) is ~30 µM and 30.2 µM.
As to `O=C(C=Cc1ccc(O)c2c1C(C(=O)OC(Cc1ccc(O)c(O)c1)C(=O)O)C(c1ccc(O)c(O)c1)O2)OC(Cc1ccc(O)c(O)c1)C(=O)O` (stereo not drawn) [Salvianolic acid B], the Ki at human recombinant GSK-3β [3] (ATP-competitive inhibition, constant GSM substrate (25 μM), varying ATP (0.5, 1, 2 μM)) turned out to be 5.44 µM; at human recombinant GSK-3β [3] (muscle glycogen synthase (GSM)-competitive inhibition, constant ATP (1 μM), varying GSM substrate (12.5, 25, 50 μM)), 6.32 µM. Also, the “Inhibition Mode” value is “ATP-competitive” on human recombinant GSK-3β [3]; “ATP-competitive and GSM substrate–competitive” on human recombinant GSK-3β [3] (listed as Sal B). Besides, the “time to maximum plasma concentration” value in data set [4] is 0.5 to 1 h. Also, the “time traceable after administration” value in [4] is “up to 180 min”. Also, the Aβ generation result in the data set with SH-SY5Y-APPsw cells is listed as “inhibited Aβ generation”. The “proliferation and differentiation into neurons of iPSCs” value in data set [5] is “potently improved”. Also, in [6], the cognitive impairments result is reported as “reverses cognitive impairments”. For the same compound, the brain-targeting efficacy in [7] (compared to intravenous and oral administration) is on record as 5.54. In data set [7], the bioavailability is listed as 43.98%. Besides, the IC50 on human recombinant GSK-3β [2] (setting [9]) turned out to be 6.97 ± 0.96 µM.
For the compound `O=C(/C=C/c1ccc(O)c2oc(-c3ccc(O)c(O)c3)cc12)O[C@H](Cc1ccc(O)c(O)c1)C(=O)O` [Salvianolic acid C], the BACE1 inhibitory activity result in the data set on BACE1 is “potent activity”. On human recombinant GSK-3β [2] (setting [8]), the IC50 is ~30 µM and 31.8 µM.
